Reference: ChEMBL document CHEMBL4507310, “Data for DCP probe A-1211212” (2021)

Tests used:
[1] = biological target: Adenosine receptor A3 (Homo sapiens) (UniProt P0DMS8); experiment: A3 (h) Eurofins-Cerep binding assay; set-up: ligand concentration 0.15 nM; settings: filed as agonist, Compound concentration 10.0 uM
[2] = biological target: Myosin-IIIa (Homo sapiens) (UniProt Q8NEV4); settings: Compound concentration 1000.0 nM
[3] = biological target: T1, Muscarinic acetylcholine receptor M1 (Homo sapiens) (UniProt P11229); settings: Compound concentration 10.0 uM
T1 sequence (whole entry): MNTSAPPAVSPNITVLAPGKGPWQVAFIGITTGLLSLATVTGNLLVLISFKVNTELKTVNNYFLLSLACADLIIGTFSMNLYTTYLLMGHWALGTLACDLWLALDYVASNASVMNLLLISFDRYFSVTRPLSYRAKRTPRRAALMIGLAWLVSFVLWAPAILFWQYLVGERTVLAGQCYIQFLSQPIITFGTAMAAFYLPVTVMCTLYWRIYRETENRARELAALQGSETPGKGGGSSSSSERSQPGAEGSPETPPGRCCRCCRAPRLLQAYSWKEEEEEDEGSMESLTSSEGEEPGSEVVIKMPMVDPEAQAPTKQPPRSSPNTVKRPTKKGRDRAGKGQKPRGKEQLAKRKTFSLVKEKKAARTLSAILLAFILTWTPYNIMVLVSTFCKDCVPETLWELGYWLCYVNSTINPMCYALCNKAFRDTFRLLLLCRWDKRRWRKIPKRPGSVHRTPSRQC

[4] = biological target: Mitogen-activated protein kinase 4 (Homo sapiens) (UniProt P31152); settings: Compound concentration 1000.0 nM
Chain of Mitogen-activated protein kinase 4 (Homo sapiens) (P31152 whole entry, canonical isoform): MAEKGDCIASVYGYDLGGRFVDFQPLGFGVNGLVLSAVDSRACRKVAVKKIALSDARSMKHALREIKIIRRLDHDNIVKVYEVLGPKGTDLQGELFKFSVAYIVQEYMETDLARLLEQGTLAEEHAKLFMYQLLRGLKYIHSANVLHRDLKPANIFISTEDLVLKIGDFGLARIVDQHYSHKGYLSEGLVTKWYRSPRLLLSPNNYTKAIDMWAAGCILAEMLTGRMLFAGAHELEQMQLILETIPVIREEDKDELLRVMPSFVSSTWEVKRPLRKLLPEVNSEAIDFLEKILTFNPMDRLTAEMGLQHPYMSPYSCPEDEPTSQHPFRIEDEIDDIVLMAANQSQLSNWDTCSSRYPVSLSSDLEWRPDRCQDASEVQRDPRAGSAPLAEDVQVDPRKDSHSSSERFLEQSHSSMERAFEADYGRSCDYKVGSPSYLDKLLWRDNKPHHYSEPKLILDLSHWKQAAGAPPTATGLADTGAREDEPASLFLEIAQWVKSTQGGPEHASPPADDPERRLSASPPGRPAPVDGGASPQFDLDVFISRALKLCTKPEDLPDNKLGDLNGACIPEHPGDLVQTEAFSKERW

[5] = system: Phosphatidylinositol 4,5-bisphosphate 3-kinase catalytic subunit alpha isoform (Homo sapiens), P42336 [H1047Y]; settings: Compound concentration 1000.0 nM
[6] = biological target: T2, GABA-A receptor; anion channel (Rattus norvegicus) (UniProt O09028+P15431+P18506+P18508+P19969+P20236+P23574+P23576+P28471+P28473+P30191+P62813+P63079+P63138+Q91ZM7+Q9ES14); settings: Compound concentration 10.0 uM
[7] = biological target: Translocator protein (Rattus norvegicus) (UniProt P16257); experiment: BZD (peripheral) Eurofins-Cerep binding assay; set-up: ligand concentration 0.2 nM; settings: filed as antagonist, Compound concentration 10.0 uM
[8] = biological target: Hormonally up-regulated neu tumor-associated kinase (Homo sapiens) (UniProt P57058); settings: Compound concentration 1000.0 nM
[9] = biological target: Proto-oncogene tyrosine-protein kinase ROS (Homo sapiens) (UniProt P08922); settings: Compound concentration 1000.0 nM
[10] = system: Mast/stem cell growth factor receptor Kit (Homo sapiens), P10721 [A829P]; settings: Compound concentration 1000.0 nM
[11] = biological target: T3, Alpha-1B adrenergic receptor (Homo sapiens) (UniProt P35368); settings: Compound concentration 10.0 uM
T3 sequence (whole entry): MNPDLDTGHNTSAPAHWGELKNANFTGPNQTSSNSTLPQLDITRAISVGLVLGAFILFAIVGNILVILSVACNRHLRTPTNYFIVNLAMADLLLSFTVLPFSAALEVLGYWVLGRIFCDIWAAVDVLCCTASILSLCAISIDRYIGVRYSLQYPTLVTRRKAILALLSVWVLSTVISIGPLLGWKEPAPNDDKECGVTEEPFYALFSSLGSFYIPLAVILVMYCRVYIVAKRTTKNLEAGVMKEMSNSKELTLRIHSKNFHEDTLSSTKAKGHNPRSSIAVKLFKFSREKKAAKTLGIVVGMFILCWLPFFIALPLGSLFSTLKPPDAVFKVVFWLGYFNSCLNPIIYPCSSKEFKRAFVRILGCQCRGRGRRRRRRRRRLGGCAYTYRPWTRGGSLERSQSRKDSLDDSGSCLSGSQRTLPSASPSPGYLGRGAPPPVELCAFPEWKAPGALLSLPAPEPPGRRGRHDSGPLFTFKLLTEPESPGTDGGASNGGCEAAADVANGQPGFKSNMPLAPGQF

[12] = biological target: Mitogen-activated protein kinase kinase kinase 19 (Homo sapiens) (UniProt Q56UN5); settings: Compound concentration 1000.0 nM
[13] = biological target: Calcium/calmodulin-dependent protein kinase type II subunit delta (Homo sapiens) (UniProt Q13557); settings: Compound concentration 1000.0 nM
[14] = biological target: T2, GABA-A receptor; anion channel (Rattus norvegicus); experiment: BZD (central) Eurofins-Cerep binding assay; format: protein-complex assay; set-up: ligand concentration 0.4 nM; settings: filed as agonist, Compound concentration 10.0 uM
[15] = biological target: Interleukin-1 receptor-associated kinase 4 (Homo sapiens) (UniProt Q9NWZ3); settings: Compound concentration 1000.0 nM
[16] = biological target: Non-receptor tyrosine-protein kinase TNK1 (Homo sapiens) (UniProt Q13470); settings: Compound concentration 1000.0 nM
Chain of Non-receptor tyrosine-protein kinase TNK1 (Homo sapiens) (Q13470 whole entry): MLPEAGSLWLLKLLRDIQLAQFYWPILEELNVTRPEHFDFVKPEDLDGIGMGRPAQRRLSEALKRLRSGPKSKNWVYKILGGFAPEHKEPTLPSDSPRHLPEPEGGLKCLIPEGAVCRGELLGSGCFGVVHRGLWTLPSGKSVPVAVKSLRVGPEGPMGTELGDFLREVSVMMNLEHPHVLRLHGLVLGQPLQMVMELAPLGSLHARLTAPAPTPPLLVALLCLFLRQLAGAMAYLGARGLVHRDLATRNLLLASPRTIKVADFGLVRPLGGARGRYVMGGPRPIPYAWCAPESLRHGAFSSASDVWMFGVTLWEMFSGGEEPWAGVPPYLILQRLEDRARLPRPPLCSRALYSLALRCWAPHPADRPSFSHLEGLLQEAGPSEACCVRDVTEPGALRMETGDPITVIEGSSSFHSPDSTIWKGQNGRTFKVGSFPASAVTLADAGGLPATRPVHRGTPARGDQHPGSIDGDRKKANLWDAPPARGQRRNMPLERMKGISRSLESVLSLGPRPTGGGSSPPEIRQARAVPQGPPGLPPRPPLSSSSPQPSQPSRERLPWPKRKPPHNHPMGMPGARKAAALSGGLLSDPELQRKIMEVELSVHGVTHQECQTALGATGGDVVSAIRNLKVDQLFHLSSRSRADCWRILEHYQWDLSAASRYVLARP

[17] = biological target: BMP-2-inducible protein kinase (Homo sapiens) (UniProt Q9NSY1); settings: Compound concentration 1000.0 nM
Chain of BMP-2-inducible protein kinase (Homo sapiens) (Q9NSY1 whole entry, looked up): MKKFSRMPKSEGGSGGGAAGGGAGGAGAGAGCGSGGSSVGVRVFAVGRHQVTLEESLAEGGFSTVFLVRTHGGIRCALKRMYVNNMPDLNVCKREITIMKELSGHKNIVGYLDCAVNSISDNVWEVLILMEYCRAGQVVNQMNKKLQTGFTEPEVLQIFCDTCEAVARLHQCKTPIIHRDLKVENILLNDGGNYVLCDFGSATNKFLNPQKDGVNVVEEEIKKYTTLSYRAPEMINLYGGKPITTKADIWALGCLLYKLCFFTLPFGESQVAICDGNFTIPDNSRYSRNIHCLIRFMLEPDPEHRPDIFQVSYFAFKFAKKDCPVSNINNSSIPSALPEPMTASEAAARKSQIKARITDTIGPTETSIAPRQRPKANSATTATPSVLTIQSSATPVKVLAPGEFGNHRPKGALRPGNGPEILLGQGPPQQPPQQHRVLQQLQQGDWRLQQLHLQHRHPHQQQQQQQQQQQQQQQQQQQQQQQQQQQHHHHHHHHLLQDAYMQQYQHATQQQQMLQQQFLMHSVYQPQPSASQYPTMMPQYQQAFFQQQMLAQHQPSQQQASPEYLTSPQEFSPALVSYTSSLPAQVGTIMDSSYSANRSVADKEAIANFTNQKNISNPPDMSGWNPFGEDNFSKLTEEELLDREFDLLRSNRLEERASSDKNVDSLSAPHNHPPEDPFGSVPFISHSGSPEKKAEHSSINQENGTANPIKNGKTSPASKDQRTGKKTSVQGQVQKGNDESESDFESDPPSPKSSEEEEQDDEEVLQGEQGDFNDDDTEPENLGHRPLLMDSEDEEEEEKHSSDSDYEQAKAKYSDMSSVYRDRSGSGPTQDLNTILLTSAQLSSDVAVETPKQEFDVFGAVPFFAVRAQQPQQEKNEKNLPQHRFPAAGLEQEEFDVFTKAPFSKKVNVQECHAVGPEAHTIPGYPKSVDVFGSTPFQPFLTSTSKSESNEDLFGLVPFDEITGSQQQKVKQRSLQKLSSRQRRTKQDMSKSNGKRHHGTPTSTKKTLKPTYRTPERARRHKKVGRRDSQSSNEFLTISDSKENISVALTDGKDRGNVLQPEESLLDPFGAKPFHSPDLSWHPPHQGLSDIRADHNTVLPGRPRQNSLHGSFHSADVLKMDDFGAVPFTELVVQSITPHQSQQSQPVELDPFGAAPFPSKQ

[18] = system: Epidermal growth factor receptor (Homo sapiens), P00533 [UNDEFINED MUTATION]; settings: Compound concentration 1000.0 nM
[19] = biological target: MAP/microtubule affinity-regulating kinase 4 (Homo sapiens) (UniProt Q96L34); settings: Compound concentration 1000.0 nM
Chain of MAP/microtubule affinity-regulating kinase 4 (Homo sapiens) (Q96L34 whole entry): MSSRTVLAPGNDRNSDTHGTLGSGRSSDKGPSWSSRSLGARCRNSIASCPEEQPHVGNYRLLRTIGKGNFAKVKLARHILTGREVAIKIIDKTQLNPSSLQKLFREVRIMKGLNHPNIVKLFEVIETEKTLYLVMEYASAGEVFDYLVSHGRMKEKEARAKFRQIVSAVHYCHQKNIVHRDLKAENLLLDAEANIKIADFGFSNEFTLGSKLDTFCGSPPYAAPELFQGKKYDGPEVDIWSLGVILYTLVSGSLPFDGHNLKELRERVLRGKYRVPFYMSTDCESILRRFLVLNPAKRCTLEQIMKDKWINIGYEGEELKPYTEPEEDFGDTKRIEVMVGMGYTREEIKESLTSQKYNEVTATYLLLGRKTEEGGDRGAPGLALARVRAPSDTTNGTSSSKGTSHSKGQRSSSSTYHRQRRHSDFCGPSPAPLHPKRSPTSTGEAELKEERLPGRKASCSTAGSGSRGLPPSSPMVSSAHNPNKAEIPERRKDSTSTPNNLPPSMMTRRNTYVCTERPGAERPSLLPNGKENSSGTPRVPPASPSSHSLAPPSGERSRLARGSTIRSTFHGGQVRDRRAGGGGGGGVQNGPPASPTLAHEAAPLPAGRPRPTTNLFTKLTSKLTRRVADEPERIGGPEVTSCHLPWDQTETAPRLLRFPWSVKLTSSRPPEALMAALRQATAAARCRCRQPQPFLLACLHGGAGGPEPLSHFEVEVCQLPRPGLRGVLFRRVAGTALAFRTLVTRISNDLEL

[20] = biological target: Tyrosine-protein kinase Lyn (Homo sapiens) (UniProt P07948); settings: Compound concentration 1000.0 nM
Chain of Tyrosine-protein kinase Lyn (Homo sapiens) (P07948 2-512 limits assumed): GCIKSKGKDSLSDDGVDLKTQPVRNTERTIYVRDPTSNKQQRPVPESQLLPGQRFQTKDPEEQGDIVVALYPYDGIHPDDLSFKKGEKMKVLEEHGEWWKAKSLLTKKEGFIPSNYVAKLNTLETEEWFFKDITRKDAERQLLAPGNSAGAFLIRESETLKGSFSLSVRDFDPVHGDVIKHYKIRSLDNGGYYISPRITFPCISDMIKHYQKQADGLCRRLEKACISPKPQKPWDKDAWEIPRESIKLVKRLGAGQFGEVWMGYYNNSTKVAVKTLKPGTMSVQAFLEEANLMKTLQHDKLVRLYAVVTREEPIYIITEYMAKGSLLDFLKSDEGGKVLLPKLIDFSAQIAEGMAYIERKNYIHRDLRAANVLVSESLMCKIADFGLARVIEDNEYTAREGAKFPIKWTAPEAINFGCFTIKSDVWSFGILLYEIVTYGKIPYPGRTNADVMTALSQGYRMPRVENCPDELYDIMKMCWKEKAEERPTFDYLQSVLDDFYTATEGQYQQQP

[21] = biological target: Tyrosine-protein kinase receptor UFO (Homo sapiens) (UniProt P30530); settings: Compound concentration 1000.0 nM
Chain of Tyrosine-protein kinase receptor UFO (Homo sapiens) (P30530 whole entry): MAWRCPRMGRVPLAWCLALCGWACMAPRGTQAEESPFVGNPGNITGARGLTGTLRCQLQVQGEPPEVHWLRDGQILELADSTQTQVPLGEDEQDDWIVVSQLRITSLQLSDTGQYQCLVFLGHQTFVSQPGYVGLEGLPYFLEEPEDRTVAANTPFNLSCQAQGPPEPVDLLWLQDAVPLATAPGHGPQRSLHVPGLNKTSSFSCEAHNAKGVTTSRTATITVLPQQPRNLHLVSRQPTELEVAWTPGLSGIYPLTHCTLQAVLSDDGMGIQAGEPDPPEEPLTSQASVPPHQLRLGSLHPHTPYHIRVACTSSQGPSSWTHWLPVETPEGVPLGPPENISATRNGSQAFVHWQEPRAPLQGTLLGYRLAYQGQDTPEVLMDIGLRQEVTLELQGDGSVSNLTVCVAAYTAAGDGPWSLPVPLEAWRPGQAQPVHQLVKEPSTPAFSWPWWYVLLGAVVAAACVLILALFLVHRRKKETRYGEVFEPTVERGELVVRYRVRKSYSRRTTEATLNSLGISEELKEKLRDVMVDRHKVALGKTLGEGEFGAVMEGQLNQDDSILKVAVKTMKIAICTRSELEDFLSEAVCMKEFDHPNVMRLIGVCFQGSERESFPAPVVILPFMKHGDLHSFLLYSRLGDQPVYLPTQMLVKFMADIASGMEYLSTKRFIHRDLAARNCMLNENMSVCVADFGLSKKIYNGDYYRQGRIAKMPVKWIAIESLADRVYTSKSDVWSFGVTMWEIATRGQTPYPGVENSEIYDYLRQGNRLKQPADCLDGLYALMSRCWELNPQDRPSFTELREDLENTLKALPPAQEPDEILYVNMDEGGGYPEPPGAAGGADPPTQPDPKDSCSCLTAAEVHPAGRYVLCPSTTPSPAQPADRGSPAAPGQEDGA

[22] = biological target: Calcium/calmodulin-dependent protein kinase type 1G (Homo sapiens) (UniProt Q96NX5); settings: Compound concentration 1000.0 nM
Chain of Calcium/calmodulin-dependent protein kinase type 1G (Homo sapiens) (Q96NX5 whole entry): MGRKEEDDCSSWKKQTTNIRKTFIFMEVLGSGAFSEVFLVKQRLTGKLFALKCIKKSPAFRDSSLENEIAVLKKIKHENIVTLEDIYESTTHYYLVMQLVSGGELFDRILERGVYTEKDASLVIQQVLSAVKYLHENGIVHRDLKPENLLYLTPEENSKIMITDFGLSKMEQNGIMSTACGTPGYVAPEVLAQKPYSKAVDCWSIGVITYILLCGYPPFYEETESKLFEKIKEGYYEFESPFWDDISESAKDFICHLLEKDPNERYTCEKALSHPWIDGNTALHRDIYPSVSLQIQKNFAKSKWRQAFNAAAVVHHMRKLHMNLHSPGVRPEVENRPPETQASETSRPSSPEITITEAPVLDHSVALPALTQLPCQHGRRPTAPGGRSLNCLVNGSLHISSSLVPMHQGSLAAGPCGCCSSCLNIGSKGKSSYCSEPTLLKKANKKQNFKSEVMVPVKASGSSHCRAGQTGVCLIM

[23] = biological target: Tyrosine-protein kinase Fes/Fps (Homo sapiens) (UniProt P07332); settings: Compound concentration 1000.0 nM
[24] = biological target: Phosphatidylinositol 4-kinase beta (Homo sapiens) (UniProt Q9UBF8); settings: Compound concentration 1000.0 nM
[25] = biological target: D(1A) dopamine receptor (Homo sapiens) (UniProt P21728); experiment: D1 (h) Eurofins-Cerep binding assay; set-up: ligand concentration 0.3 nM; settings: filed as antagonist, Compound concentration 10.0 uM
[26] = biological target: LIM domain kinase 1 (Homo sapiens) (UniProt P53667); settings: Compound concentration 1000.0 nM
[27] = biological target: Cyclin-dependent kinase-like 3 (Homo sapiens) (UniProt Q8IVW4); settings: Compound concentration 1000.0 nM
[28] = biological target: Glucocorticoid receptor (Homo sapiens) (UniProt P04150); experiment: GR (h) Eurofins-Cerep binding assay; set-up: ligand concentration 1.5 nM; settings: filed as agonist, Compound concentration 10.0 uM
[29] = biological target: Serine/threonine-protein kinase Sgk2 (Homo sapiens) (UniProt Q9HBY8); settings: Compound concentration 1000.0 nM

Row | Structure (SMILES) | % Inhibition of Control Specific Binding (Mean n=2) [1] | residual activity [2] | inhibition [3] | residual activity [4] | residual activity [5] | inhibition [6] | % Inhibition of Control Specific Binding (Mean n=2) [7] | residual activity [8] | residual activity [9] | residual activity [10] | inhibition [11] | residual activity [12] | residual activity [13] | % Inhibition of Control Specific Binding (Mean n=2) [14] | residual activity [15] | residual activity [16] | residual activity [17] | residual activity [18] | residual activity [19] | residual activity [20] | further results
1 | O=C(NS(=O)(=O)c1ccc(NCC2CCOCC2)c([N+](=O)[O-])c1)c1ccc(N2CCN(Cc3ccc(C(F)(F)F)cc3-c3ccc(Cl)cc3)CC2)cc1Oc1cnc2[nH]ccc2c1 [A-1210227] | 6.5% | 85% | -6.07% | 97% | 67% | 14.5% | 36% | 100% | 87% | 99% | 12.3% | 71% | 100% | 4.2% | 85% | 96% | 94% | 100% | 85% | 99% | residual activity [21]: 88%; residual activity [22]: 92%; residual activity [23]: 100%; residual activity [24]: 79%; % Inhibition of Control Specific Binding (Mean n=2) [25]: 6.4%; residual activity [26]: 85%; residual activity [27]: 95%; % Inhibition of Control Specific Binding (Mean n=2) [28]: -9.4%; residual activity [29]: 100%
2 | CO[C@H]1CC[C@H](CNc2ccc(S(=O)(=O)NC(=O)c3ccc(N4CCN(CC5=C(c6ccc(Cl)cc6)CC(C)(C)CC5)CC4)cc3Oc3cnc4[nH]ccc4c3)cc2[N+](=O)[O-])CC1 [A-1211212] | 13.3% | 82% | 4.59% | 100% | 70% | 19% | 44.9% | 100% | 72% | 100% | 1.2% | 64% | 96% | -1% | 83% | 81% | 94% | 100% | 83% | 74% | residual activity [21]: 94%; residual activity [22]: 73%; residual activity [23]: 100%; residual activity [24]: 97%; % Inhibition of Control Specific Binding (Mean n=2) [25]: 0.7%; residual activity [26]: 89%; residual activity [27]: 83%; % Inhibition of Control Specific Binding (Mean n=2) [28]: 4.6%; residual activity [29]: 91%
